Reference: patent US10377718B2, “Apelin receptor (APJ) agonists and uses thereof” (Research Triangle Institute, priority 2014, dated 2019)

Test system: C57BL/6 mice
Assay: in vivo blood pressure lowering activity, non-invasive blood pressure and heart rate after IP injection
Conditions: Apelin-13 at 0.4 nmol/kg
Protocol: The compounds were also assayed for blood pressure activity using C57BL/6 mice and the procedure described by Tatemoto et al. The novel peptide apelin lowers blood pressure via a nitric oxide-dependent mechanism. Regul Pept. 2001; 99: 87-92. […] Studies have been published citing reductions in blood pressure occur following peptide apelin administration. Apelin-13 was used as a positive control. Knockout C57BL/6 mice lacking APJ have cardiovascular deficiencies. […] Charo et al. Am J Physiol Heart Circ Physiol. 2009 November 297(5):[…] et al. J Physiol Biochem. 2007 December; 63(4):359-73. Blood pressure measurements in these species of mice have been reported in the literature. […] et al. Am J Physiol Heart Circ Physiol. 2003 February; 284(2):[…]-74. On the first day of the study, 11 animals were treated with apelin-13, 11 with vehicle alone, and 11 as sham controls. The two later groups were used to determine effects (if any) of the vehicle or injection alone on blood pressure (BP). The experiment was conducted as follows: The animals were restrained and a baseline measurement taken for 5 min. Animals were injected and immediately monitored for 15 minutes. The effect of test agents should be apparent within this time. Tatemoto et al. reported that the effects of Apelin-13 were apparent within minutes. Tatemoto et al. 2001 Immediately following dosing, blood pressure (diastolic, systolic and mean pressure) and heart rate for each animal was recorded for up to 15 minutes using a Kent Scientific CODA Non-Invasive Blood Pressure System. […] On day 2-5 a similar protocol was used in increasing doses. The animals were randomized daily in three groups of 11 to receive either of the two experimental compounds by IP injection. […] At the end of the 5-day dosing period, all animals were humanely euthanized. [table]

Compound	lowers blood pressure by
Apelin-13 [reference compound]	~10%

Biological target: T1, apelin receptor (APJ) (Homo sapiens, UniProt P35414)
T1 sequence (P35414 1-380): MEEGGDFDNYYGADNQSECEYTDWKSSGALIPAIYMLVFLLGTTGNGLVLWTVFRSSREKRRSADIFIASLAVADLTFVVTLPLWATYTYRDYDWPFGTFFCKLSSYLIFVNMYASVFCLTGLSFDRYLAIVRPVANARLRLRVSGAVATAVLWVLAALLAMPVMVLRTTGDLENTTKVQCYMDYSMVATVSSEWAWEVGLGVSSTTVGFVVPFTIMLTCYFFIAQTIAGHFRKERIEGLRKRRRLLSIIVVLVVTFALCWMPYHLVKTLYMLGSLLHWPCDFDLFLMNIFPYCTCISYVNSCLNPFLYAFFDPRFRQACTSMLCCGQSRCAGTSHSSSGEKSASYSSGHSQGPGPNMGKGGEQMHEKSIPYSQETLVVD
Assay: in vitro apelin agonist activity (methods of Giddings et al., Apelin-13 as positive control)
Type: cell-based
Conditions: not given
Excerpt: The compounds above were studied for their in vitro activity as apelin agonists using the methods described by Giddings et al. Giddings et al., 2010 Int J High Thro Screen. 1:39-47, the contents of which are hereby incorporated by reference in its entirety.

Compound	EC50
COc1cccc(OC)c1-c1cc(C(=O)N[C@H](C(=O)O)C2CCCCC2)nn1C1CCCCC1 [compound 93, (S)-2-Cyclohexyl-2-(1-cyclohexyl-5-(2,6-dimethoxyphenyl)-1H-pyrazole-3-carboxamido)acetic acid]	< 10 µM

Same assay, conditions: apelin agonist activity, Giddings et al. method; read-out: agonist activity (EC50)

EC50	Compound
< 10 µM	CCCNC(=O)[C@H](CCc1ccccc1)NC(=O)c1cc(-c2c(OC)cccc2OC)n(CC(C)C)n1 [compound 225]
< 10 µM	COc1cccc(OC)c1-c1cc(C(=O)N[C@H](CC(=O)O)CC(C)C)nn1CC1CC1 [compound 181]
< 10 µM	C=C[C@@H](CC(=O)NC1CCC1)NC(=O)c1cc(-c2c(OC)cccc2OC)n(C2CCCC2)n1 [compound 263]
< 10 µM	CCCCNC(=O)C[C@@H](CC(C)C)NC(=O)c1cc(-c2c(OC)cccc2OC)n(CC(C)C)n1 [compound 153]
< 10 µM	COc1cccc(OCc2ccccc2)c1-c1cc(C(=O)N[C@H](CC(=O)NCc2ccccc2)CC(C)C)nn1C1CCCCC1 [compound 132]
< 10 µM	COc1cccc(OC)c1-c1cc(C(=O)N[C@H](CC(=O)Nc2ccc(F)cc2)CC(C)C)nn1CC(C)C [compound 163, (S)-5-(2,6-Dimethoxyphenyl)-N-(1-((4-fluorophenyl)amino)-5-methyl-1-oxohexan-3-yl)-1-isobutyl-1H-pyrazole-3-carboxamide]
< 10 µM	COC(=O)CN(C)C(=O)[C@H](CC(C)C)NC(=O)c1cc(-c2c(OC)cccc2OC)n(CC(C)C)n1 [compound 219]
< 10 µM	CCNC(=O)C[C@H](CC(C)C)NC(=O)c1cc(-c2c(OC)cccc2OC)n(CC(C)C)n1 [compound 161, (S)-5-(2,6-Dimethoxyphenyl)-N-(1-(ethylamino)-5-methyl-1-oxohexan-3-yl)-1-isobutyl-1H-pyrazole-3-carboxamide]
< 10 µM	CCCn1nc(C(=O)N[C@H](CC(=O)NCC(=O)OC)CC(C)C)cc1-c1c(OC)cccc1OC [compound 186]
< 10 µM	CCCCNC(=O)C[C@H](CC(C)C)NC(=O)c1cc(-c2c(OC)cccc2OCc2ccccc2)n(C2CCCCC2)n1 [compound 133, 5-(2-(Benzyloxy)-6-methoxyphenyl)-N-((S)-1-(butylamino)-5-methyl-1-oxohexan-3-yl)-1-cyclohexyl-1H-pyrazole-3-carboxamide]
< 10 µM	COc1cccc(OC)c1-c1cc(C(=O)N[C@H](CC(=O)NCC(=O)O)CC(C)C)nn1C1CCCCC1 [compound 81, (S)-2-(3-(1-Cyclohexyl-5-(2,6-dimethoxyphenyl)-1H-pyrazole-3-carboxamido)-5-methylhexanamido)acetic acid]
< 10 µM	CNC(=O)C[C@H](CC(C)C)NC(=O)c1cc(-c2c(OC)cccc2OC)n(CC(C)C)n1 [compound 141, (S)-5-(2,6-Dimethoxyphenyl)-1-isobutyl-N-(5-methyl-1-(methylamino)-1-oxohexan-3-yl)-1H-pyrazole-3-carboxamide]
< 10 µM	CNC(=O)CNC(=O)C[C@H](CC(C)C)NC(=O)c1cc(-c2c(OC)cccc2OC)n(CC(C)C)n1 [compound 176]
< 10 µM	COc1cccc(OC)c1-c1cc(C(=O)N[C@H](CC(=O)NC2CC2)CC(C)C)nn1CC(C)C [compound 172]
< 10 µM	COc1cccc(OCc2ccccc2)c1-c1cc(C(=O)N[C@H](CC(=O)NCC(=O)O)CC(C)C)nn1C1CCCCC1 [compound 129, 2-((3S)-3-(5-(2-(Benzyloxy)-6-methoxyphenyl)-1-cyclohexyl-1H-pyrazole-3-carboxamido)-5-methylhexanamido)acetic acid]
< 10 µM	COC(=O)CNC(=O)[C@H](CC(C)C)NC(=O)c1cc(-c2c(OC)cccc2OC)n(CC(C)C)n1 [compound 188]
< 10 µM	CCCCNC(=O)C[C@H](CC(C)C)NC(=O)c1cc(-c2c(OC)c(F)cc(F)c2OC)n(CC(C)C)n1 [compound 168]
< 10 µM	COc1cccc(OC)c1-c1cc(C(=O)NC(CC(=O)O)C2CCCCC2)nn1-c1ccc(F)cc1 (stereo not shown) [compound 257]
< 10 µM	COC(=O)CNC(=O)[C@H](CC(C)C)NC(=O)c1cc(-c2c(OC)cccc2OC)n(C2CCCCC2)n1 [compound 189]

EC50	Compound
< 10 µM	CCCC[C@H](NC(=O)c1cc(-c2c(OC)cccc2OC)n(CC(C)C)n1)C(=O)NCC(=O)OC [compound 212]
< 10 µM	COC(=O)C[C@H](CC(C)C)NC(=O)c1cc(-c2c(OC)cccc2OC)n(CC(C)C)n1 [compound 164]
< 10 µM	COC(=O)CNC(=O)CC(NC(=O)c1cc(-c2c(OC)cccc2OC)n(-c2ccc(F)cc2)n1)C1CCCCC1 (stereo not shown) [compound 258]
< 10 µM	COc1cccc(OC)c1-c1cc(C(=O)N[C@H](CC(=O)NCC(N)=O)CC(C)C)nn1CC(C)C [compound 175]
< 10 µM	COC(=O)CNC(=O)C[C@H](CC(C)C)NC(=O)c1cc(-c2c(OC)cccc2OC)n(-c2ccc(F)cc2)n1 [compound 137]
< 10 µM	COC(=O)CNC(=O)C[C@H](CC(C)C)NC(=O)c1cc(-c2c(OC)cccc2OC)n(C2CCCCC2)n1 [compound 103, (S)-Methyl 2-(3-(1-cyclohexyl-5-(2,6-dimethoxyphenyl)-1H-pyrazole-3-carboxamido)-5-methylhexanamido)acetate]
< 10 µM	COc1c(F)cc(F)c(OC)c1-c1cc(C(=O)N[C@H](CC(=O)O)CC(C)C)nn1CC(C)C [compound 167]
< 10 µM	COc1cccc(OC)c1-c1cc(C(=O)N[C@H](CC(=O)O)CC(C)C)nn1C1CCCCC1 [compound 79, (S)-3-(1-Cyclohexyl-5-(2,6-dimethoxyphenyl)-1H-pyrazole-3-carboxamido)-5-methylhexanoic acid]
< 10 µM	COc1cccc(OCc2ccccc2)c1-c1cc(C(=O)N[C@H](CC(=O)O)CC(C)C)nn1-c1ccc(F)cc1 [compound 82, (3S)-3-(5-(2-(Benzyloxy)-6-methoxyphenyl)-1-(4-fluorophenyl)-1H-pyrazole-3-carboxamido)-5-methylhexanoic acid]
< 10 µM	COc1cccc(OC)c1-c1cc(C(=O)N[C@@H](CCC2CCCCC2)Cc2nnn[nH]2)nn1CC(C)C [compound 265]
< 10 µM	COc1cccc(OC)c1-c1cc(C(=O)N[C@H](CC(N)=O)CC(C)C)nn1-c1ccc(F)cc1 [compound 65]
< 10 µM	COCCN(C)C(=O)[C@H](CCC1CCCCC1)NC(=O)c1cc(-c2c(OC)cccc2OC)n(CC(C)C)n1 [compound 256]
< 10 µM	COC(=O)CNC(=O)C[C@H](CC(C)C)NC(=O)c1cc(-c2c(OC)cccc2OCc2ccccc2)n(C2CCCCC2)n1 [compound 127, Methyl 2-((3S)-3-(5-(2-(benzyloxy)-6-methoxyphenyl)-1-cyclohexyl-1H-pyrazole-3-carboxamido)-5-methylhexanamido)acetate]
< 10 µM	COc1cccc(OC)c1-c1cc(C(=O)N[C@H](CC(=O)NCCO)CC(C)C)nn1CC(C)C [compound 142, (S)-5-(2,6-Dimethoxyphenyl)-N-(1-((2-hydroxyethyl)amino)-5-methyl-1-oxohexan-3-yl)-1-isobutyl-1H-pyrazole-3-carboxamide]
< 10 µM	COc1cccc(OC)c1-c1cc(C(=O)N[C@@H](CCc2ccccc2)C(=O)N2CCCC2)nn1CC(C)C [compound 226]
< 10 µM	COc1cccc(OC)c1-c1cc(C(=O)N[C@H](CC(=O)O)CC(C)C)nn1C1CCCC1 [compound 182]
< 10 µM	CCOC(=O)CCNC(=O)C[C@H](CC(C)C)NC(=O)c1cc(-c2c(OC)cccc2OCc2ccccc2)n(C2CCCCC2)n1 [compound 138, Ethyl 3-((3S)-3-(5-(2-(benzyloxy)-6-methoxyphenyl)-1-cyclohexyl-1H-pyrazole-3-carboxamido)-5-methylhexanamido)propanoate]
< 10 µM	COc1cccc(OC)c1-c1cc(C(=O)N[C@H](CC(=O)NCC2CCCCC2)CC(C)C)nn1CC(C)C [compound 155, (S)—N-(1-((Cyclohexylmethyl)amino)-5-methyl-1-oxohexan-3-yl)-5-(2,6-dimethoxyphenyl)-1-isobutyl-1H-pyrazole-3-carboxamide]
< 10 µM	COC(=O)CNC(=O)C[C@H](CC(C)C)N(C)C(=O)c1cc(-c2c(OC)cccc2OC)n(CC(C)C)n1 [compound 238]
